Test results published in US20230181474A1, “TABLET COMPRISING OPICAPONE” (Ono Pharmaceutical Co., Ltd., priority 2020, published 2023).

Assay: Evaluation of particle size by dynamic particle image analysis (iSpect DIA-10)
Type: physicochemical
Conditions: dispersion medium 10% polysorbate 20 aqueous solution
From the text: In the present specification, “maximum length” refers to a maximum length between two points on a contour of a particle, and this may be measured by the dynamic image analysis method. An example of the equipment used for measurement is the dynamic particle image analysis system iSpect DIA-10 (Shimadzu Corporation). In the present invention, the maximum length of particles of opicapone or a pharmaceutically acceptable salt thereof in terms of D50 value is less than 46 µm, preferably 45 µm or less, more preferably 40 µm or less, even more preferably 35 µm or less, and particularly preferably 30 µm or less or 29 µm or less. In the present invention, the maximum length of particles of opicapone or a pharmaceutically acceptable salt thereof in terms of D90 value is, for example, less than 111 µm, preferably 110 µm or less, more preferably 100 µm or less, even more preferably 90 µm or less, and particularly preferably 80 µm or less.
In the present specification, “equivalent circle diameter” refers to the diameter of a circle that has the same area as the projected area of a particle image, and this may be measured by the dynamic image analysis method. An example of the equipment used for measurement is the dynamic particle image analysis system iSpect DIA-10 (Shimadzu Corporation).
The particle sizes of the non-micronized product and the micronized products A1 to A4 prepared in Example 1 using the opicapone drug substance were measured under the following conditions.
• Measurement equipment: Dynamic particle image analysis system iSpect DIA-10 (Shimadzu Corporation) • Evaluation items: Equivalent circle diameter, maximum length • Dispersion medium: 10% polysorbate 20 aqueous solution • Sample: Approximately 10 mg of the measurement sample was placed in 1 ml of the dispersion medium, suspended, and then diluted 100-fold.

| Structure (SMILES) | Equivalent Circle Diameter D10 [µm] | Equivalent Circle Diameter D50 [µm] | Equivalent Circle Diameter D90 [µm] | Maximum Length D10 [µm] | Maximum Length D50 [µm] | Maximum Length D90 [µm] |
| --- | --- | --- | --- | --- | --- | --- |
| Cc1nc(Cl)c(-c2noc(-c3cc(O)c(O)c([N+](=O)[O-])c3)n2)c(C)c1Cl [Micronized Product A2] | 7 | 11 | 18 | 16 | 26 | 60 |
| Cc1nc(Cl)c(-c2noc(-c3cc(O)c(O)c([N+](=O)[O-])c3)n2)c(C)c1Cl [Micronized Product A3] | 7 | 11 | 19 | 15 |  | 73 |
| Cc1nc(Cl)c(-c2noc(-c3cc(O)c(O)c([N+](=O)[O-])c3)n2)c(C)c1Cl [Micronized Product A 1] | 7 | 11 |  | 16 | 28 | 63 |
| Cc1nc(Cl)c(-c2noc(-c3cc(O)c(O)c([N+](=O)[O-])c3)n2)c(C)c1Cl [Non-micronized Product] | 6 | 13 | 23 | 16 |  | 111 |
